Like-named read-outs stand apart in the source and are kept apart here.

Data set [1] can be described thus: single-oral-dose pharmacokinetic study, plasma AVA and metabolite concentrations in pediatric hypercholesterolemia stratified by SLCO1B1 c.521T>C genotype. It counts as in vivo, human. As to conditions: for AUC(0-t) / Cmax / Tmax: human, plasma, 10 mg; for Tmax: median (range). The method, then:
A screening physical examination (including sexual maturity rating via Tanner Staging) was performed prior to ingesting AVA. […] Samples were immediately centrifuged at 4 °C for 10 min at 600 g. Plasma was removed and stored at -80 °C until the analysis. […] All analytical reference compounds were purchased from Toronto Research Chemicals at their highest purity. Plasma proteins were precipitated with acetonitrile and centrifuged, and the filtrates were transferred to a new set of clean, labeled microcentrifuge tubes. An aliquot of the extracts was then transferred to a 96-well plate and analyzed by ultra-performance liquid chromatography tandem mass spectrometry (UPLC-MS/MS) with positive-ion electrospray ionization using multiple-reaction monitoring (MRM). […] Gradient elution was optimized with an acetonitrile-water-MeOH gradient: mobile phase A: water: MeOH: acetic acid (v/v/v), 90:10:0.1; mobile phase B: acetonitrile: methanol: acetic acid (v/v/v), 60:40:0.1. […] All the data acquisition and analysis were carried out by Masslynx 4.2 software. […] The individual peak plasma concentration (Cmax) and time to maximal concentration (Tmax) were obtained by direct examination of the plasma AVA concentration versus hour profile. The area under the plasma concentration versus time curve during the sampling period (AUC0-n) was calculated using the mixed log-linear method, where n refers to the final sampling time with quantifiable plasma AVA or AVA metabolite concentrations. […] Pharmacokinetic parameters were examined in JMP® version 14 (SAS, Cary, NC, USA). Pharmacokinetic parameters reflective of plasma AVA concentrations (Cmax, AUC0-n) and the SLCO1B1 genotype ([…] vs. T/C and C/C) were dependent variables and independent variables, respectively. The Kruskal-Wallis test was leveraged to compare the pharmacokinetic parameters related to genotype groups and demographics. Linear regression to examine the association between the AVA AUCn and […] genotype groups, adjusting for BMI z-score, sex and Tanner score, was performed. […] A single Tanner score was computed by averaging each participant's Tanner breast/testicular and Tanner public hair stage scores. AVA AUC0-24 was first modeled as a function of BMI z-score, sex and Tanner score to estimate the proportion of variability that could be accounted for by these participant characteristics. Then, the count of […] alleles was added to the model to estimate the additional variability accounted for. […] Therefore, the Cmax and AUC were normalized to a dose for each individual participant by dividing the exposure parameter value by the actual mg/kg dose received, then multiplying by the mean mg/kg dose for the entire cohort (e.g., participant AUC (ng·hr/mL)/participant dose (mg/kg) × cohort mean dose (mg/kg)).

The conditions of data set [2]: pediatric cohorts; cited from earlier work.
Where [3] appears, read: female, oral, Table S3, Gender: Female, mean (± SD), read-out: AUC0-24.
Where [4] appears, read: oral, Table S1, entire cohort, median (IQR).
The mark [5] stands for this setting: oral, Table S1, entire cohort, median (IQR), read-out: AUC 0-24.
Where [6] appears, read: oral, Table S3, Ethnicity: African-American, mean (± SD), read-out: AUC0-24.
The mark [7] stands for this setting: oral, Table S3, Ethnicity: White, Hispanic, mean (± SD), read-out: AUC0-24.
[8] abbreviates: oral, Table S3, Ethnicity: White, non-Hispanic, mean (± SD), read-out: AUC0-24.
Setting [9] is: oral, Table S3, Tanner Breast/Testicular Stage 2, mean (± SD), read-out: AUC0-24.
Where [10] appears, read: oral, Table S3, Tanner Breast/Testicular Stage 3, read-out: AUC0-24.
[11] abbreviates: oral, Table S3, Tanner Breast/Testicular Stage 4, mean (± SD), read-out: AUC0-24.
The mark [12] stands for this setting: oral, Table S3, Tanner Breast/Testicular Stage 5, mean (± SD), read-out: AUC0-24.
The mark [13] stands for this setting: oral, Table S3, Tanner Pubic Stage 1, read-out: AUC0-24.
Where [14] appears, read: oral, Table S3, Tanner Pubic Stage 2, mean (± SD), read-out: AUC0-24.
[15] abbreviates: oral, Table S3, Tanner Pubic Stage 3, read-out: AUC0-24.
The mark [16] stands for this setting: oral, Table S3, Tanner Pubic Stage 4, mean (± SD), read-out: AUC0-24.
Where [17] appears, read: oral, Table S3, Tanner Pubic Stage 5, mean (± SD), read-out: AUC0-24.
The mark [18] stands for this setting: po, SLCO1B1 c.521C/C (n = 2), single oral 10 mg dose, mean (±SD).
Where [19] appears, read: po, SLCO1B1 c.521C/C (n = 2), single oral 10 mg dose.
The mark [20] stands for this setting: po, SLCO1B1 c.521C/C (n = 2), single oral 10 mg dose, mean (±SD), read-out: AUC0–24.
Where [21] appears, read: po, SLCO1B1 c.521T/C (n = 13), single oral 10 mg dose, mean (±SD).
Where [22] appears, read: po, SLCO1B1 c.521T/C (n = 13), single oral 10 mg dose.
[23] abbreviates: po, SLCO1B1 c.521T/C (n = 13), single oral 10 mg dose, mean (±SD), read-out: AUC0–24.
Where [24] appears, read: po, SLCO1B1 c.521T/T (n = 13), single oral 10 mg dose, mean (±SD).
Where [25] appears, read: po, SLCO1B1 c.521T/T (n = 13), single oral 10 mg dose.
Setting [26] is: po, SLCO1B1 c.521T/T (n = 13), single oral 10 mg dose, mean (±SD), read-out: AUC0–24.
Where [27] appears, read: po, entire cohort (n = 28), median (IQR), single oral 10 mg dose.
The mark [28] stands for this setting: po, entire cohort (n = 28), median (IQR), single oral 10 mg dose, read-out: AUC0–24.
[29] abbreviates: male, oral, Table S3, Gender: Male, mean (± SD), read-out: AUC0-24.

As for `CC(C)c1c(C(=O)Nc2ccccc2O)c(-c2ccccc2)c(-c2ccc(F)cc2)n1CCC1CC(O)CC(=O)O1` (stereo not shown) [2-Hydroxy Atorvastatin Lactone, 2-hydroxyatorvastatin lactone], the “effect of SLCO1B1 c.521T>C genotype on exposure” value in data set [1] (Kruskal–Wallis across genotype groups) is recorded as “not affected by genotype”. Moreover, the AUC(0-t) stood at 18 ng·h/mL in data set [1] (setting [3]); 14.5 ng·h/mL in data set [1] (setting [5]); 16.7 ng·h/mL in data set [1] (setting [6]); 17.2 ng·h/mL in data set [1] (setting [7]); 16.4 ng·h/mL in data set [1] (setting [8]); 31.9 ng·h/mL in data set [1] (setting [9]). The AUC(0-t) in data set [1] (setting [10]) stood at 23.4 ng·h/mL; in data set [1] (setting [11]), 13.4 ng·h/mL; in data set [1] (setting [12]), 12.9 ng·h/mL; in data set [1] (setting [13]) it was 39.2 ng·h/mL; in data set [1] (setting [14]), 32.7 ng·h/mL; in data set [1] (setting [15]) it was 12.7 ng·h/mL. Also, the AUC(0-t) in data set [1] (setting [16]) was 8.5 ng·h/mL; in data set [1] (setting [17]) it was 13.7 ng·h/mL; in data set [1] (setting [20]), 31 ng·h/mL; in data set [1] (setting [23]), 17.4 ng·h/mL; in data set [1] (setting [26]), 14 ng·h/mL; in data set [1] (setting [28]) it was 14.5 ng·h/mL. The AUC(0-t) in data set [1] (setting [29]) was determined as 15.7 ng·h/mL. The Cmax in data set [1] (setting [4]) was found to be 1.1 ng/mL; in data set [1] (setting [18]) it was 1.9 ng/mL; in data set [1] (setting [21]), 1.3 ng/mL; in data set [1] (setting [24]) it was 1 ng/mL; in data set [1] (setting [27]) it was 1.1 ng/mL. Moreover, the Tmax in data set [1] (setting [19]) worked out at 7 h; in data set [1] (setting [22]), 5 h; in data set [1] (setting [25]) it was 7 h.

As to `CC(C)c1c(C(=O)Nc2ccccc2O)c(-c2ccccc2)c(-c2ccc(F)cc2)n1CC[C@@H](O)C[C@@H](O)CC(=O)O` [2-Hydroxy Atorvastatin, 2-hydroxyatorvastatin], the AUC(0-t) in data set [1] (setting [3]) came to 7.3 ng·h/mL; in data set [1] (setting [5]), 6.4 ng·h/mL; in data set [1] (setting [6]), 6.1 ng·h/mL; in data set [1] (setting [7]), 7.6 ng·h/mL; in data set [1] (setting [8]), 6.9 ng·h/mL; in data set [1] (setting [9]), 6 ng·h/mL. For the same compound, the AUC(0-t) in data set [1] (setting [10]) turned out to be 6 ng·h/mL; in data set [1] (setting [11]), 4.7 ng·h/mL; in data set [1] (setting [12]), 8.1 ng·h/mL; in data set [1] (setting [13]), 5.1 ng·h/mL; in data set [1] (setting [14]), 6.7 ng·h/mL; in data set [1] (setting [15]), 4.1 ng·h/mL. Besides, the AUC(0-t) in data set [1] (setting [16]) was determined as 3.6 ng·h/mL; in data set [1] (setting [17]), 8 ng·h/mL; in data set [1] (setting [20]) it was 10.8 ng·h/mL; in data set [1] (setting [23]) it was 7.5 ng·h/mL; in data set [1] (setting [26]) it was 6.2 ng·h/mL; in data set [1] (setting [28]), 6.4 ng·h/mL. For the same compound, the AUC(0-t) in data set [1] (setting [29]) came out at 7 ng·h/mL. The Cmax in data set [1] (setting [4]) was determined as 0.7 ng/mL; in data set [1] (setting [18]), 1.3 ng/mL; in data set [1] (setting [21]), 0.8 ng/mL; in data set [1] (setting [24]) it was 0.7 ng/mL; in data set [1] (setting [27]) it was 0.7 ng/mL. Further, the Tmax in data set [1] (setting [19]) stood at 5 h; in data set [1] (setting [22]) it was 3 h; in data set [1] (setting [25]), 2 h.

For `CC(C)c1c(C(=O)Nc2ccccc2)c(-c2ccccc2)c(-c2ccc(F)cc2)n1CC[C@@H]1C[C@@H](O)CC(=O)O1` [Atorvastatin Lactone, atorvastatin lactone], the “mean Cmax fold higher, c.521C/C relative to c.521T/T” value in data set [1] (c.521C/C (n = 2) vs c.521T/T (n = 13)) amounted to 2.1 fold. For the same compound, the “mean Cmax fold higher, c.521T/C relative to c.521T/T” value in data set [1] (c.521T/C (n = 13) vs c.521T/T (n = 13)) came out at 1.6 fold. Also, the “mean AUC0–24 fold higher, c.521T/C relative to c.521T/T” value in data set [1] (c.521T/C vs reference genotype) is on record as 1.8 fold. The AUC(0-t) in data set [1] (setting [3]) was found to be 12.1 ng·h/mL; in data set [1] (setting [5]), 8.7 ng·h/mL; in data set [1] (setting [6]), 11.4 ng·h/mL; in data set [1] (setting [7]) it was 13.2 ng·h/mL; in data set [1] (setting [8]) it was 10 ng·h/mL; in data set [1] (setting [9]), 23.3 ng·h/mL. In addition, the AUC(0-t) stood at 17.3 ng·h/mL in data set [1] (setting [10]); 7.9 ng·h/mL in data set [1] (setting [11]); 8.5 ng·h/mL in data set [1] (setting [12]); 15.4 ng·h/mL in data set [1] (setting [13]); 27.7 ng·h/mL in data set [1] (setting [14]); 7.8 ng·h/mL in data set [1] (setting [15]). For the same compound, the AUC(0-t) in data set [1] (setting [16]) turned out to be 5 ng·h/mL; in data set [1] (setting [17]) it was 8.9 ng·h/mL; in data set [1] (setting [20]), 27.8 ng·h/mL; in data set [1] (setting [23]), 13 ng·h/mL; in data set [1] (setting [26]), 7.2 ng·h/mL; in data set [1] (setting [28]), 8.7 ng·h/mL. Besides, in data set [1] (setting [29]), the AUC(0-t) amounted to 10.7 ng·h/mL. The Cmax amounted to 0.9 ng/mL in data set [1] (setting [4]); 1.5 ng/mL in data set [1] (setting [18]); 1.1 ng/mL in data set [1] (setting [21]); 0.7 ng/mL in data set [1] (setting [24]); 0.9 ng/mL in data set [1] (setting [27]). In addition, the Tmax in data set [1] (setting [19]) is 6 h; in data set [1] (setting [22]), 4 h; in data set [1] (setting [25]), 2.5 h.

With `CC(C)c1c(C(=O)Nc2ccccc2)c(-c2ccccc2)c(-c2ccc(F)cc2)n1CC[C@@H](O)C[C@@H](O)CC(=O)O` [Atorvastatin, reference compound], the “participants with secondary peaking suggestive of entero-hepatic recirculation” value in data set [1] (12 of 28 participants) came to 43%. In data set [1] (single oral 10 mg dose, 28 participants), the adverse events entry is given as “No adverse events were reported”.

Take `CC[C@H](C)C(=O)O[C@H]1C[C@H](O)C=C2C=C[C@H](C)[C@H](CC[C@@H](O)C[C@@H](O)CC(=O)O)[C@H]21` [pravastatin]: the “within-c.521T>C-genotype variability in plasma statin concentration” value in data set [2] is recorded as 8- to 17 fold.

The record behind these values is PMC10815823 (Genes, 2024).
